Results reported in publication PMC3561128, “Preclinical evaluation of carbon-11 and fluorine-18 sulfonamide derivatives for in vivo radiolabeling of erythrocytes” (EJNMMI Research, 2013).
Where “and” joins values, the source holds several entries; their conditions need not be identical. Equal entries are not always repeated. Where two headings read alike, the source gives them in different places. Values belong to the molecule of their own block, whether it stands above or below them.

What was measured:
hCA I = hCA I (Homo sapiens, UniProt P00915); assay: CA-catalyzed CO2 hydration, stopped-flow inhibition assay; format: biochemical; conditions: human (cloned) isozyme; CO2 hydration reaction at 20°C; n = 3
hCA I, sequence (P00915 whole entry): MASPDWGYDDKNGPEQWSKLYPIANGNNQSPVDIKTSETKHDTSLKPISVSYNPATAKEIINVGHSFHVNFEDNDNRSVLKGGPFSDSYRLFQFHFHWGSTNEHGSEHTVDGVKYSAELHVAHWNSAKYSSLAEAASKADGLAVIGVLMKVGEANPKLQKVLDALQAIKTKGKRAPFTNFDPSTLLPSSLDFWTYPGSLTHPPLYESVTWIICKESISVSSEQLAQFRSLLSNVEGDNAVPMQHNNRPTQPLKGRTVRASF
Experimental: (§1) Phenol red (0.2 mM) was used as indicator, working at the absorbance maximum of 557 nm, with 10 mM Hepes as buffer (pH 7.5) and 0.1 M Na2SO4 (for maintaining constant ionic strength) at 25°C following the CA-catalyzed CO2 hydration reaction for a period of 10 to 100 s (the uncatalyzed reaction needs around 60 to 100 s under assay conditions, whereas the catalyzed reactions take around 6 to 10 s). The CO2 concentrations ranged from 1.7 to 17 mM for the determination of kinetic parameters. Each compound was tested in the concentration range between 0.01 nM to 100 μM. The uncatalyzed rates were determined in the same manner and subtracted from the total observed rates. Stock solutions of the compounds (0.1 mM) were prepared in distilled water with 10% to 20% (v/v) DMSO (which is non-inhibitory at these concentrations), and dilutions up to 0.01 nM were made with distilled water. Inhibitor and enzyme solutions were preincubated together for 15 min at room temperature prior to the assay, in order to allow the formation of enzyme-inhibitor complex. The inhibition constants were obtained by nonlinear least square methods using PRISM 3 (GraphPad Software, La Jolla, CA, USA), and they represent the mean from at least three different determinations.

hCA II = hCA II (Homo sapiens, UniProt P00918); assay: as above; format: biochemical; conditions: human (cloned) isozyme; CO2 hydration reaction at 20°C; n = 3
Experimental: as §1

[1] = Log D (1-octanol/phosphate buffer pH 7.4), shake flask method; format: physicochemical
Experimental: Determination of the distribution coefficient (log D1-octanol/phosphate buffer pH 7.4), was carried out by a shake flask method. An aliquot (25 μL) of the tracer agents ^18F]-(3), ^11C]-(4), ^18F]-(5), or ^11C]-(6) (185 to 555 kBq/mL) was added to a polypropylene tube (5 mL; Sarstedt, Nümbrecht, Germany) containing 2 mL of 0.025 M sodium phosphate buffer pH 7.4 and 2 mL of 1-octanol. The tube was vortexed for 2 min at room temperature followed by centrifugation at 3,000 rpm for 10 min (Eppendorf centrifuge 5810, Eppendorf, Westbury, NY, USA). Aliquots of 50 μL of the 1-octanol phase and 500 μL of the phosphate buffer phase were pipetted into separate tared Eppendorf tubes with adequate care to avoid cross contamination between the two phases. The samples were weighed, and radioactivity was quantified using an automated gamma counter. The experiments were carried out sixfold.

[2] = Biodistribution studies in NMRI mice; format: in vivo; conditions: i.v.; for Percentage of ID, blood: blood mass assumed 7% of body mass
Experimental: The biodistribution studies were performed in wild-type NMRI mice with body weights ranging from 30 to 40 g. Mice were intravenously injected with 0.1 MBq of ^18F]-(3) or ^18F]-(5) and 5.5 MBq of ^11C]-(4) or ^11C]-(6) under anesthesia (2% isoflurane in O2 at a flow rate of 1 L/min). The animals were killed by decapitation at 2 min or 60 min p.i. (n = 4/time point for ^18F]-(3), ^11C]-(4), and ^11C]-(6); n = 6 for ^18F]-(5)). Blood was collected, and all major organs were dissected and collected in tarred tubes and were weighed. The radioactivity in each organ was counted using an automated gamma counter, corrected for background radioactivity and expressed as follows: percentage of the injected dose (% ID) or as standardized uptake value (SUV) (SUV = (Counts in tissue per gram of tissue) / (Injected counts per total body mass (g)). For the calculation of total radioactivity in the blood, blood mass was assumed to be 7% of the body mass.

RBCs [3] = system: RBCs; design: method as in PMID 1647382, PMID 1647383; conditions: rats, 24 h p.i.; cited from earlier work
RBCs [4] = system: RBCs; design: method as in PMID 1647382, PMID 1647383; conditions: human volunteers, 24 h p.i.; cited from earlier work

SMILES: COc1ccc(C(=O)NCCc2ccc(S(N)(=O)=O)cc2)cc1 [(4)]
Ki (hCA I): 0.39 µM
Ki (hCA II): 0.02 µM
logD [1]: 1.19

SMILES: NS(=O)(=O)c1ccc(OCCF)cc1 [(5)]
Ki (hCA I): 30.9 µM
Ki (hCA II): 0.336 µM
logD [1]: 0.32

SMILES: COc1ccc(S(N)(=O)=O)cc1 [(6)]
Ki (hCA I): 24.7 µM
Ki (hCA II): 0.422 µM
logD [1]: 0.42

SMILES: NS(=O)(=O)c1ccc(I)cc1 [p-iodobenzenesulfonamide]
Activity associated with RBCs (RBCs [3]): about 50 % of the injected dose
Activity associated with RBCs (RBCs [4]): more than 88 % of the ID

More lines, now with the values ahead:

Ki (hCA I): 0.096 µM
Ki (hCA II): 0.008 µM
logD [1]: 1.13
SMILES: NS(=O)(=O)c1ccc(CCNC(=O)c2ccc(OCCF)cc2)cc1 [(3)]

Ki (hCA II): 0.008 µM
Percentage of ID, brain ([2]; 2 min p.i.): 0.2 ± 0.0 % ID
Percentage of ID, carcass ([2]; 2 min p.i.): 18.10 ± 2.32 % ID
Percentage of ID, heart ([2]; 2 min p.i.): 0.8 ± 0.0 % ID
Percentage of ID, intestines ([2]; 2 min p.i.): 5.9 ± 0.8 % ID
Percentage of ID, kidneys ([2]; 2 min p.i.): 10.6 ± 0.8 % ID
Percentage of ID, liver ([2]; 2 min p.i.): 15.8 ± 1.5 % ID
Percentage of ID, lungs ([2]; 2 min p.i.): 2.3 ± 0.5 % ID
Percentage of ID, spleen + pancreas ([2]; 2 min p.i.): 1.3 ± 0.2 % ID
Percentage of ID, stomach ([2]; 2 min p.i.): 0.7 ± 0.1 % ID
Percentage of ID, urine ([2]; 2 min p.i.): 0.2 ± 0.1 % ID
SUV, blood ([2]; 2 min p.i.): 10.1 ± 0.6
SUV, brain ([2]; 2 min p.i.): 0.2 ± 0.0
SUV, heart ([2]; 2 min p.i.): 2.3 ± 1.3
SUV, kidneys ([2]; 2 min p.i.): 5.6 ± 0.6
SUV, liver ([2]; 2 min p.i.): 3.2 ± 0.2
SUV, lungs ([2]; 2 min p.i.): 3.5 ± 1.0
SUV, spleen ([2]; 2 min p.i.): 1.6 ± 0.2
Percentage of ID, blood ([2]; 2 min p.i.): 71.0 ± 4.3 % ID
Percentage of ID, brain ([2]; 60 min p.i.): 0.2 ± 0.1 % ID
Percentage of ID, carcass ([2]; 60 min p.i.): 31.35 ± 3.67 % ID
Percentage of ID, heart ([2]; 60 min p.i.): 0.2 ± 0.2 % ID
Percentage of ID, intestines ([2]; 60 min p.i.): 18.6 ± 1.0 % ID
Percentage of ID, kidneys ([2]; 60 min p.i.): 2.8 ± 0.1 % ID
Percentage of ID, liver ([2]; 60 min p.i.): 8.3 ± 1.2 % ID
Percentage of ID, lungs ([2]; 60 min p.i.): 0.7 ± 0.3 % ID
Percentage of ID, spleen + pancreas ([2]; 60 min p.i.): 0.9 ± 0.3 % ID
Percentage of ID, stomach ([2]; 60 min p.i.): 1.9 ± 1.3 % ID
SUV, blood ([2]; 60 min p.i.): 4.5 ± 0.3
SUV, brain ([2]; 60 min p.i.): 0.1 ± 0.0
SUV, heart ([2]; 60 min p.i.): 0.5 ± 0.4
SUV, kidneys ([2]; 60 min p.i.): 1.6 ± 0.1
SUV, liver ([2]; 60 min p.i.): 1.7 ± 0.3
SUV, lungs ([2]; 60 min p.i.): 1.1 ± 0.4
SUV, spleen ([2]; 60 min p.i.): 1.1 ± 0.3
Percentage of ID, blood ([2]; 60 min p.i.): 32 % ID and 31.7 ± 2.1 % ID
SMILES: NS(=O)(=O)c1ccc(CCNC(=O)c2ccc(OCC[18F])cc2)cc1 [[^18F]-(3), 4-(2-[^18F]fluoroethoxy)benzoyl aminoethylbenzenesulfonamide]
